# Measurements taken from article PMC10759609, “A novel PDPN antagonist peptide CY12-RP2 inhibits melanoma growth via Wnt/β-catenin and modulates the immune cells” (Journal of Experimental & Clinical Cancer Research : CR, 2024).
# Where two headings read alike, the source gives them in different places. Peptide text beside a SMILES is read from it.
# Tests used:
# A875 cells [1] = type: cell-based
# Experimental: (§1) Cell viability was determined using a CCK8 kit. Melanoma cells were plated into 96-well plates at a density of 5 × 10^3 cells/well. The cells were then treated with peptides at the determined concentrations for 24, 48, and 72 h. The CCK-8 (10 μL/ well) was pipetted into each well and the cells were incubated at 37 °C for 1~3 h. The viable cells were calculated by performing absorbance readings at 450 nm using a microplate reader (BioTek).
# A375 cells = type: cell-based
# Experimental: as §1
# PDPN in A375 cells = experiment: Immunofluorescence binding/co-localization with PDPN, A375; type: cell-based; conditions: 5 μM, 10 h, 37 ℃
# Experimental: Immunofluorescence analysis was used for antigen localization and quantification. For PDPN immunofluorescence staining, melanoma cells (A375, A875) were seeded in coverslips, cultured for 24 h, and fixed using 4% paraformaldehyde for 15 min at room temperature (RT). The cells were then permeabilized with 0.2% Triton X-100 in PBS for 10 min. Cells were blocked using 1% bovine serum albumin (BSA) in PBS for 30 min at RT, and incubated with the primary antibody overnight at 4 ℃. Afterwards, cells were washed three times with PBS containing 0.01% Triton X-100 for 5 min, and incubated with Alexa Fluor 568–conjugated secondary antibodies at RT for 1 h. Lastly, the nuclei were dyed with 4’,6-diamidino-2-phenylindole (DAPI) for 5 min at RT, and the slides were imaged using a NIKON laser scanning confocal microscope. To further verify the specificity binding ability of CY12-RP2 with PDPN, immunofluorescence was detected for analysis in melanoma cells. Briefly, A375 or A875 cells were incubated with CY12-RP2 at a concentration of 5 μM for 10 h at 37 ℃, and then washed with DMEM to remove the unbound peptide. The anti-PDPN primary antibody was then incubated for 4 h at RT. Further experimental procedures were performed as described above. […]
# [2] = test system: liver, heart, spleen, lung and kidney; conditions: mouse, in vivo
# Experimental: For histopathological analysis, after BALB/c nude mice were sacrificed, organs (heart, liver, spleen, lung, and kidney) were collected and fixed in 4% paraformaldehyde for 24 h at RT. The fixed organs were then dehydrated and inserted in paraffin, and prepared in 2 µm sections. The prepared sections and experimental procedures were routinely carried out by Servicebio company.
# A875 cells [3] = experiment: Annexin V/PI flow cytometry apoptosis, A875; type: cell-based; conditions: 0, 50, 100, 200 μM, 48 h
# Experimental: In this study, cell apoptosis was analyzed by flow cytometry using a PI/FITC-Annexin V Apoptosis Detection Kit (4A Biotech, Beijing, China). Briefly, melanoma cells were collected and washed with pre-chilled PBS, then resuspended with Annexin V staining buffer. Afterward, fluorescein isothiocyanate (FITC)-Annexin V and PI were stained for 5 min at RT, and then immediately detected using a Beckman flow cytometer. To investigate immune cell infiltration of the lung and spleen in the pulmonary metastasis mouse model, the surface and nuclear antigen staining were performed following the experimental procedure. Fluorescence-labeled mAb against CD3, CD25, CD49b, GranzymeB, CD11b, CD86, and CD206 were purchased from BioLegend (BioLegend, San Diego, CA), and CD4, CD8, and Foxp3 from Tonbo. […] Finally, the samples were measured using flow cytometry.
# Fig. 3 Biopanning of PDPN antagonist peptides. […] B Immunofluorescence staining was performed to quantify the colocalization of CY12-RP2 and PDPN protein in melanoma cell lines (A375, A875). […] D Suppression efficiency of melanoma cells growth by CY12-RP2 was measured by CCK8 assay at various concentrations for 24, 48 or 72 h, respectively. […] G, H The 3D cellular spheres were treated with the set concentrations of CY12-RP2 for 5 days and cell morphology was assessed (G), relative spheroid diameter was measured (H). […]
# [4] = test system: B16F10-Luc melanoma allograft; type: in vivo, BALB/c mice; murine melanoma cell line; conditions: 100 mg/kg, tail vein, every other day for 15 days
# Experimental: Tumorigenesis assays were conducted in vivo using BALB/c nude mice and BALB/c mice from Guangdong Medical Laboratory Animal Center. The animal study was reviewed and approved by the Administrative Committee on Animal Research of Shenzhen International Graduate School, Tsinghua University (Ethical Development No. 16, 10 November 2021). Samples with 5 × 10^5 A375 or B16F10-Luc melanoma cells were diluted in 100 μL PBS and injected subcutaneously into 6- to 8-week-old female BALB/c nude mice or BALB/c mice. 5 days later, the mice were treated with CY12-RP2 by tail vein administration at various doses (25 mg/kg and 100 mg/kg) every two days. The tumor volume and body weight were measured every 2 days, with the calculation of the tumor volume under the assumption of an ellipsoidal tumor as: tumor volume = length × width^2/2. Tumors from BALB/c nude mice were collected and photographed on day 21, while tumors from the allograft mouse model were measured using bioluminescence imaging. The blood collected from the eyes of BALB/c nude mice were stored at 4 °C for 24 h and then centrifuged for 15 min under the indicated conditions (4 °C, 3000 rpm). The supernatant was collected and assayed for drug toxicity using kits, including AST, ALT, TG, and γ-GT. […]
smiles,measurement,setting,value
CC(C)C[C@H](NC(=O)[C@H](Cc1ccc(O)cc1)NC(=O)[C@@H](N)[C@@H](C)O)C(=O)N[C@@H](CS)C(=O)N[C@H](C(=O)N[C@@H](C)C(=O)N[C@@H](CS)C(=O)N[C@@H](CC(=O)O)C(=O)N[C@@H](Cc1ccc(O)cc1)C(=O)N[C@H](C(=O)N[C@@H](Cc1c[nH]cn1)C(=O)N[C@@H](Cc1c[nH]cn1)C(=O)O)[C@@H](C)O)[C@@H](C)O [CY12-RP2] (H-TYLCTACDYTHH-OH; N-terminus and C-terminus assumed),IC50,A875 cells [1]; 48 h,654 µM
same,IC50,A875 cells [1]; 72 h,117 µM
same,cell growth inhibition (in words),"A875 cells [1]; PDPN underexpressed A875, CCK8, various concentrations",relatively diminished impact
same,IC50,A375 cells; 24 h,602 µM
same,IC50,A375 cells; 48 h,118 µM
same,IC50,A375 cells; 72 h,55.2 µM
same,cell growth inhibition (in words),"A375 cells; PDPN overexpressed A375, CCK8, various concentrations",dramatically inhibited cell growth in a dose-dependent manner
same,fluorescence and co-localization with PDPN,PDPN in A375 cells,strong fluorescence and co-localization
same,toxic effect on organs (overall),[2],slightly toxic effect
same,apoptosis rate,A875 cells [3],milder
same,tumor volume,[4],noticeably decreased
same,tumor growth (bioluminescence imaging),[4]; vs control,significantly decreased tumor growth
